Data published in EP1200099B1, “SYNERGISTIC COMPOSITION COMPRISING DAUNORUBICIN DERIVATIVES AND ANTI[…]” (Pharmacia Italia S.p.A., priority 1999, dated 2001).

Test system: disseminated L1210 murine leukemia
Assay: Antileukemic activity on disseminated L1210 murine leukemia (in vivo survival)
Set-up: species or system mouse CD2F1
Conditions: for toxicity (in words): single agents: gemcitabine 15 and 60 mg/kg ip day 1, PNU 159548 1 and 1.5 mg/kg iv day 1
Excerpt: The superadditive actions of the combination preparation of the present invention may be shown for instance by in vivo tests for the antileukemic activity on disseminated L1210 murine leukemia. The combination of Ia with gemcitabine (Table 1) or 5-Fluorouracil tested at the different doses and schedules, produces favorable ILS% values (Increase in life span: [(median survival time of treated mice/median survival time of controls)x 100]-100), indicating a synergistic effect.
By combining gemcitabine and PNU 159548 at the same doses and with the same schedule, an increase of activity with ILS% values of 117 and 204 were observed, indicating a synergistic effect as shown by the combination index (CI) of […], respectively.
For these experiments Ia was solubilized in [Cremophor® /EtOH = 6.5:3.5]/[normal saline]=20/80 v/v, while standard pharmaceutical preparation were used for the antimetabolite compounds.

[1] = PNU 159548 alone, iv day +1, 1 mg/kg/day
[2] = PNU 159548 alone, iv day +1, 1.5 mg/kg/day
[3] = gemcitabine alone, ip day +1, 15 mg/kg/day
[4] = gemcitabine alone, ip day +1, 60 mg/kg/day

Compound | LTS: long-term survivors (>60 days) at the end of the experiments [1] | TOX: Number of toxic deaths/number of mice [1] | ILS% (PNU 159548 alone, iv day +1, 1 mg/kg/day, L1210 cells 10^5/mouse IV on Day 0) [%] | ILS% [2] [%] | LTS: long-term survivors (>60 days) at the end of the experiments [2] | TOX: Number of toxic deaths/number of mice [2] | toxicity (in words) | ILS% [3] [%] | LTS: long-term survivors (>60 days) at the end of the experiments [3] | TOX: Number of toxic deaths/number of mice [3] | ILS% [4] [%] | LTS: long-term survivors (>60 days) at the end of the experiments [4] | TOX: Number of toxic deaths/number of mice [4]
CC(=O)[C@]1(O)Cc2c(O)c3c(c(O)c2[C@@H](O[C@H]2C[C@H](N4CC4)[C@H](OS(C)(=O)=O)[C@H](C)O2)C1)C(=O)c1ccccc1C3=O [PNU 159548, 4-demethoxy-3'-deamino-3'-aziridinyl-4'-methansulfonyl daunorubicin] | 0/10 | 0/10 | 33 | 67 | 0/20 | 0/20 | without toxicity |  |  |  |  |  | 
Nc1ccn([C@@H]2O[C@H](CO)[C@@H](O)C2(F)F)c(=O)n1 [Gemcitabine, gemcitabine] |  |  |  |  |  |  | without toxicity | 50 | 0/10 | 0/10 | 83 | 0/20 | 0/20
